Patent publication US11020494B2, “Animal models for nonalcoholic fatty liver disease” (CROWN BIOSCIENCE INC. (TAICANG), priority 2017, dated 2021)

Assays:
FATZO mice [1] = conditions: for serum glucose concentrations in the fed state: after 8 weeks, vehicle 315.6±35.4; for serum glucose concentrations in the fed state / body weight change over the 8-week observation period: rosiglitazone 10 mg/kg/day, metformin 150 mg/kg/day; for body weight change over the 8-week observation period: oral once daily 8 weeks, vehicle 1.8±0.2
Experimental: Male FATZO mice (9 weeks of age, n=40) were maintained on Purina 5008 regular rodent chow and reverse osmosis water ad libitum. Mice were housed 3 per cage and acclimated to study environment for 7 days prior to study. At 10 weeks of age, mice were fasted for 6 hours, body weight was recorded and an OGTT performed. Glucose and insulin were assayed at 0, 30, 60, 90, 120 and 180 minutes following a 2 g/kg glucose load. Glucose concentrations were obtained from StatStrip glucometer and insulin was assayed at each time-point using the insulin kit mentioned above. Insulin sensitivity index (ISI) was calculated using a formula modified from Matsuda and DeFronzo [39] by changing the numerator to 10,000 and using glucose and insulin AUCs instead of average glucose and insulin levels ([…]/square root of [fasting glucose x fasting insulin]×[glucose AUC×insulin AUC during OGTT]).
Animals were randomized into 3 groups of 10 based on baseline ISI and body weight. […] Compounds were administered orally once daily by gavage for 8 weeks. Body weight was recorded weekly.
Following 8 weeks of treatment, OGTT was repeated one hour after compound administration. Whole blood was taken from tail clip and processed to serum. Treatment effects on glucose disposal, fed serum glucose, HbAlc, and ISI were compared to vehicle.

FATZO mice [2] = assay: Effect of leptin on food intake in FATZO mice; assay type: in vivo, mouse; conditions: leptin 10 mg/kg, first 4 hours of darkness
Experimental: Two age groups of male FATZO mice were selected for leptin levels and the effect of leptin on food intake. Additional age matched groups of C57BL/6 were bled for leptin levels. Animals were acclimated to reverse light cycle for 7 days before being put on protocol. […] Serum was prepared from tail blood and leptin levels were analyzed (Meso Scale Discovery, K152BYC, Rockville, Md., USA). After blood collection, animals were given saline or leptin injections (10 mg/kg) and food intake data was recorded for the first 4 hours of darkness.

[3] = after 8 weeks of administration, compared to vehicle

| Molecule | AUC for glucose during OGTT (FATZO mice [1]; [3]) | calculated insulin sensitivity index (ISI) (FATZO mice [1]; [3]) | insulin AUC during OGTT (FATZO mice [1]; [3]) | serum glucose concentrations in the fed state (FATZO mice [1]) | body weight change over the 8-week observation period (FATZO mice [1]) | food intake after leptin injection (FATZO mice [2]; FATZO at 10 weeks of age) | food consumption after leptin injection (FATZO mice [2]; young FATZO animals (5 weeks)) |
| --- | --- | --- | --- | --- | --- | --- | --- |
| CN(C)C(=N)N=C(N)N [metformin] | significant reductions | significant improvements | significant improvements | 250.0 ± 12.8 mg/dL | -0.2 ± 0.6 g |  |  |
| CN(CCOc1ccc(CC2SC(=O)NC2=O)cc1)c1ccccn1 (stereo not drawn) [rosiglitazone] |  |  |  | 233.3 ± 7.7 mg/dL | 5.3 ± 0.7 g |  |  |
| leptin |  |  |  |  |  | no significant reduction | significantly reduced |
